The values that follow come from patent publication US6548041B1, “Dopamine transporter imaging agents” (Organix, Inc., priority 1999, dated 2003).

SMILES strings stand for the structures.

The target in assay [1] is dopamine transporter (DAT). Nature of the assay: Binding affinity for the dopamine transporter. To be noted: for DAT/SERT: selectivity ratio from the IC50 values for DAT and SERT.
In the next assay the target is SERT (Homo sapiens, UniProt P31645). Nature of the assay: Binding affinity for SERT (selectivity test).
SERT, sequence (P31645 whole entry, species assumed): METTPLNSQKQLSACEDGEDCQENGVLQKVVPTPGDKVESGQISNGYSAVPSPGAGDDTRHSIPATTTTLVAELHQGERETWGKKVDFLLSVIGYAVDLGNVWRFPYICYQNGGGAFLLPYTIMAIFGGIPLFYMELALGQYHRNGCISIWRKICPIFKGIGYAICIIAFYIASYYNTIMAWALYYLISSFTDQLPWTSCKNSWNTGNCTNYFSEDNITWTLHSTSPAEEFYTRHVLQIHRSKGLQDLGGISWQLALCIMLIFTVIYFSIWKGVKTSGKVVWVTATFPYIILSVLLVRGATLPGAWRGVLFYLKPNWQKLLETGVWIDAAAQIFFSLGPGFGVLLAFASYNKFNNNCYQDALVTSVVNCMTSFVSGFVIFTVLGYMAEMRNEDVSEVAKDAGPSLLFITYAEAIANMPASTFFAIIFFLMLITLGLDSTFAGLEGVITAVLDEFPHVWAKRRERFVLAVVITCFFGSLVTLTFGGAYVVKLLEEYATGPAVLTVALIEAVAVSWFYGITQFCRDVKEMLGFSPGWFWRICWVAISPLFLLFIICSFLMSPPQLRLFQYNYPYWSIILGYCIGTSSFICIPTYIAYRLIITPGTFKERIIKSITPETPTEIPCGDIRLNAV
The next assay concerns the target T1, DAT sites in striatum (Macaca mulatta, UniProt Q7JHP9).
T1 construct: from tissue; host or cells: brain (striatum) of living rhesus monkeys, imaged in vivo
Briefly: SPECT imaging of monkey brain with 99mTc labeled tracers. In kind it is in vivo, Rhesus monkeys. The settings on record: images acquired between 30 and 50 minutes after injection. As for the experimental part:
All SPECT images were acquired with a MultiSPECT 2 gamma camera (Siemens, Hoffman Estates, Ill.) equipped with fan-beam collimators and peaked to the 140 KeV photopeak of ^99mTc (15% window). This camera has intrinsic resolution of 4.6 mm (FWHM), and a sensitivity of ˜240 cps/mCi. Images were acquired over 360° (60 projections/head, 128×128 matrix) in the continuous mode. Image reconstruction was performed using a conventional filtered back-projection algorithm to an in-plane resolution of 10 mm FWHM and attenuation correction via the Chang method.
Rhesus monkeys weighing approximately 7 kg were anesthetized with ketamine/xylazine (15.0 and 1.5 mg/kg) and positioned prone on the imaging bed of the SPECT camera. Before the start of imaging, a venous catheter was inserted in a peripheral vein for radiopharmaceutical administration. The heads of the animals were immobilized with a custom fabricated head holder. Approximately 20-25 mCi of ^99mTc labeled O-1505T, O-1508T, O-1561T or O-1560T was injected intravenously over 60 seconds. Dynamic SPECT imaging was initiated at the end of the infusion and consisted of 2 min. acquisitions during the first hour and 5 min. acquisitions thereafter.
SPECT slices with greatest striatal activity or in which the occipital cortex was well visualized were summed and regions of interest (ROI's) were constructed. In the striatal planes, ROI's were placed on the right and left striatum (caudate+putamen). Radioactivity in the right and left striatum were averaged. ROI radioactivities (cpm/cc) were decay corrected to the time of injection. The difference between striatal and occipital cortex activity (specific binding) was calculated for each image and was plotted as a function of time. Corrections for scattered fraction and partial volume effects were not performed.

T1 sequence (Q7JHP9 1-620): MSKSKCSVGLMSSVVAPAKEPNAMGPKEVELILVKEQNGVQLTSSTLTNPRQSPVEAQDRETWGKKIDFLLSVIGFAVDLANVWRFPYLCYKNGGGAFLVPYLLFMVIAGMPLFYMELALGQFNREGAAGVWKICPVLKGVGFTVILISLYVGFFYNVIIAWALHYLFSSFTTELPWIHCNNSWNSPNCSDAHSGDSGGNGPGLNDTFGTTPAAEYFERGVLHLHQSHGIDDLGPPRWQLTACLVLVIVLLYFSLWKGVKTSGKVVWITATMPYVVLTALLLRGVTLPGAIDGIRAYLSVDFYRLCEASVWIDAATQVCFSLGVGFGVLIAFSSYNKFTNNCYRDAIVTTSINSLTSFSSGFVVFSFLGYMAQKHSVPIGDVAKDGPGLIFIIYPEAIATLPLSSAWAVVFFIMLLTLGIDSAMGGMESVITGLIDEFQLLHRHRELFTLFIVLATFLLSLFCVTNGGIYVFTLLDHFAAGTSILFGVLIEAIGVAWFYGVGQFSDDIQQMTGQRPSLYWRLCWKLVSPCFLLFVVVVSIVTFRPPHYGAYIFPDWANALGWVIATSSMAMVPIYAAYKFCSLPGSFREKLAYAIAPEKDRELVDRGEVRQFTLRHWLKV

Consider `CCC(=O)C1C(c2ccc(F)cc2)CC2CCC1N2CCC[N+]12CC[S][Re-]13(=[O])[S]CC[N]3C(=O)C2` (stereo not drawn) [Compound O-1505, N-[(2-((3′-N′-Propyl-(1″R)-3″α-(4-fluorophenyl)tropane-2″β-1′″-propanoyl)(2-mercaptoethyl)amino)acetyl)-2-aminoethane-thiolato]rhenium (V) Oxide], for which the half-maximal inhibitory concentration (IC50) in assay [1] stood at 2 nM; on SERT, 497 nM. In assay [1], the DAT/SERT is given as 249.
The corresponding values for `COC(=O)C1C(c2ccc(F)cc2)CC2CCC1N2CCCN1CC[S][Re]2(=[O])[S]CC[N]2C(=O)C1` (single isomer, unassigned) [Compound O-927] are 5 nM, 200 nM and 40.
The corresponding values for `COC(=O)C1C(c2ccc3ccccc3c2)CC2CCC1N2CCC[N+]12CC[S][Re-]13(=[O])[S]CC[N]3C(=O)C2` (mixture of isomers) [Compound O-1339, N-[(2-((3′-N′-Propyl-(1″R)-2″β-methoxycarbonyl-3″β-(2-naphthyl)-tropane)(2-mercaptoethyl)amino)acetyl)-2-aminoethanethiolato]-rhenium (V) Oxide] are 3.6 nM, 59 nM and 16.
In the case of `COC(=O)C1C(c2ccc(F)cc2)CC2CCC1N2CCCN1CC[S][Re]2(=[O])[S]CC[N]2C(=O)C1` (single isomer, unassigned) [Compound O-928], in assay [1], the IC50 came out at 3 nM and the DAT/SERT is 10. This molecule displayed an IC50 at SERT of 30 nM.
Consider `CCC(=O)C1C(c2ccc(F)cc2)CC2CCC1N2CCCN1CC[S][99Tc]2(=[O])[S]CC[N]2C(=O)C1` (stereo not drawn) [Compound O-1508T, N-[(2-((3′-N′-Propyl-(1″R)-3″β-(4-fluorophenyl)tropane-2″β-1-propanoyl)-(2-mercaptoethyl)amino)acetyl)-2-aminoethanethiolato]technetium (V) Oxide], for which the “accumulation of radioactivity in striatum vs other areas of the brain (SPECT images)” value on DAT sites in striatum was “failing to demonstrate significant accumulation of radioactivity in striatum or elsewhere in the brain”.
For the molecule `CCC(=O)C1C(c2ccc(Cl)c(Cl)c2)CC2CCC1N2CCCN1CC[S][Re]2(=[O])[S]CC[N]2C(=O)C1` (mixture of isomers) [Compound O-1561, N-[(2-((3′-N′-Propyl-(1″R)-3″α-(3,4-dichlorophenyl)tropane-2″β-1′″-propanoyl)(2-mercaptoethyl)amino)acetyl)-2-aminoethane-thiolato]rhenium (V) Oxide], in assay [1], the IC50 is 5.3 nM and the DAT/SERT is given as 63. At SERT, the IC50 was 337 nM.
The corresponding values for `CON(C)C(=O)C1C(c2ccc(F)cc2)CC2CCC1N2CCC[N+]12CC[S][Re-]13(=[O])[S]CC[N]3C(=O)C2` (stereo not drawn) [Compound O-1451, N-[(2-((3′-N′-Propyl-(1″R)-3″α-(4-fluorophenyl)tropane-2″β-methoxymethylcarbamoyl)(2-mercaptoethyl)amino)acetyl)-2-aminoethanethiolato]rhenium (V) Oxide] are 40 nM, 80 and 3260 nM.
Regarding `COC(=O)C1C(c2ccc(F)cc2)CC2CCC1N2CCC[N+]12CC[S][Re-]13(=[O])[S]CC[N]3C(=O)C2` (stereo not drawn) [Compound O-1186], in assay [1], the IC50 is 3.8 nM and the DAT/SERT worked out at 340. This molecule showed an IC50 at SERT of 1300 nM.
With `CCC(=O)C1C(c2ccc(Cl)c(Cl)c2)CC2CCC1N2CCCN1CC[S][99Tc]2(=[O])[S]CC[N]2C(=O)C1` (stereo not drawn) [Compound O-1560T, N-[(2-((3′-N′-Propyl-(1″R)-2″β-1-propanoyl-3″β-(3,4-dichlorophenyl)-tropane)(2-mercaptoethyl)amino)acetyl)-2-aminoethanethiolato]-technetium (V) Oxide], the “accumulation of radioactivity in striatum vs other areas of the brain (SPECT images)” value at DAT sites in striatum was “results more like O-1505T and O-1561T”.
In the case of `COC(=O)C1=C(c2ccc(Cl)c(Cl)c2)CC2CCC1N2CCC[N+]12CC[S][Re-]13(=[O])[S]CC[N]3C(=O)C2` (stereo not drawn) [Compound O-1136, N-[(2-((3′-N′-Propyl-(1″R)-3″-(3,4-dichlorophenyl)trop-2-ene-2″-methoxycarbonyl)(2-mercaptoethyl)amino)acetyl)-2-aminoethane-thiolato]rhenium (V) Oxide], in assay [1], the IC50 came to 60 nM and the DAT/SERT came out at 28. On SERT, the IC50 was 1690 nM.
Turning to `COC(=O)C1C(c2ccc(F)cc2)CC2CCC1N2CCC[N+]12CC[S][Re-]13(=[O])[S]CC[N]3C(=O)C2` (mixture of isomers) [Compound O-861], in assay [1], the IC50 was found to be 2.9 nM and the DAT/SERT is listed as 28. At SERT, this molecule returned a half-inhibitory concentration (IC50) of 80 nM.
On the same counts, the results for `CCC(=O)C1C(c2ccc(F)cc2)CC2CCC1N2CCCN1CC[S][Re]2(=[O])[S]CC[N]2C(=O)C1` (mixture of isomers) [Compound O-1508, N-[(2-((3′-N′-Propyl-(1″R)-3″β-(4-fluorophenyl)tropane-2″β-1-propanoyl)(2-mercaptoethyl)amino)acetyl)-2-aminoethane-thiolato]rhenium (V) oxide] are 5.9 nM, 34 and 200 nM.
`COC(=O)C1C(c2ccc(Cl)c(Cl)c2)CC2CCC1N2CCC[N+]12CC[S][Re-]13(=[O])[S]CC[N]3C(=O)C2` (mixture of isomers) [Compound O-863] gave an IC50 in assay [1] of 40 nM.
For `COC(=O)C1C(c2ccc(Cl)c(Cl)c2)CC2CCC1N2CCC[N+]12CC[S][Re-]13(=[O])[S]CC[N]3C(=O)C2` (stereo not drawn) [Compound O-1196, N-[(2-((3′-N′-Propyl-(1″R)-3″α-(3,4-dichlorophenyl)-2″β-methoxy-carbonyltropane)(2-mercaptoethyl)amino)acetyl)-2-aminoethanethiolato]rhenium (V) Oxide], in assay [1], the IC50 was 10 nM and the DAT/SERT was determined as 64. On SERT, this molecule gave an IC50 of 640 nM.
On the same counts, the results for `COC(=O)C1=C(c2ccc3ccccc3c2)CC2CCC1N2CCC[N+]12CC[S][Re-]13(=[O])[S]CC[N]3C(=O)C2` (mixture of isomers) [Compound O-1185, N-[(2-((3′-N′-Propyl-(1″R)-2″-methoxycarbonyl-3″-(2-naphthyl)-trop-2-ene)(2-mercaptoethyl)amino)acetyl)-2-aminoethane-thiolato]-rhenium (V) Oxide] are 63 nM, 15 and 960 nM.

What is called IC50 is the concentration that gives 50% inhibition.
